Test results published in patent US8367727B2, “Method of using abscisic acid to treat diseases and disorders” (priority 2006, dated 2013).

Assay: Body weight, organ weights and feed intake of db/db mice
Format: in vivo
Procedure: Experiment 1: mice (n=25) were fed high-fat (>40% energy from fat), isocaloric, isonitrogenous diets containing 0, 100, 200, 400, and 800 mg of a racemic (±) ABA mixture/kg diet for 36 days (Table 1) (Sigma). These doses were chosen based on the standard concentrations of TZDs utilized in the treatment of NIDDM. The mice were weighed and their food intake was recorded daily. On day 36 of the study fasted mice (12 h) were bled through the caudal vein and fasting blood glucose concentrations were determined. To investigate the ability of ABA to normalize glucose concentrations, an intraperitoneal glucose tolerance test (IPGTT) was performed on day 36 on the fasted mice. Briefly, mice were bled at 0, 10, 25, and 45 minutes following the administration of glucose (2 g/kg) for measurement of plasma glucose levels. […] Weights were recorded for WAT, interscapular brown adipose tissue (BAT), and liver.
Experiment 2: The ABA dose utilized (100 mg ABA/kg) was based on the results obtained from the IPGTT of the ABA titration study (i.e., Experiment 1). Mice in experiment 2 were fed high-fat diets containing 0 or 100 mg ABA/kg for 36 days. Their body weights and food intake was recorded daily, and blood was collected on day 36 of the study during an IPGTT. This IPGTT included one additional 100 minutes time point. […] Weights were recorded for abdominal WAT, BAT, and liver.

## CC1=CC(=O)CC(C)(C)C1(O)/C=C/C(C)=C\C(=O)O (racemic) [ABA, abscisic acid]
41.34 g vs 43.54 g, not statistically significant
  final body weight less than control mice: approximately 2.2 grams
Between treatment groups
  Total feed intake: did not differ significantly
db/db mice, 100 mg ABA/kg diet, day 36
  Final body weight: no significant differences in body weights
